We go through two compounds from PMC12729524, “Enhancement of Structural Stability and IgG Affinity of a Z34C-Derived α-Helical Peptide via Lactam Stapling” (Antibodies, 2025).

Data set [1] has as its target α-chymotrypsin (Bos taurus, UniProt P00766). The conditions noted are these: 100 μM peptide in DPBS, peptide-to-enzyme mass ratio 100:1, time points 0, 1, 5, 15, 30, 60 min, stopped with 0.1% TFA, RP-HPLC read-out.
Procedure: Peptides were prepared at a concentration of 100 μM in DPBS, and α-chymotrypsin was added to achieve a final peptide-to-enzyme mass ratio of 100:1. The digestion was carried out at time points of 0, 1, 5, 15, 30, and 60 min, after which 0.1% TFA was added to terminate the reaction. The resulting samples were analyzed by reversed-phase HPLC (water/acetonitrile with 0.1% TFA) to monitor peptide stability.
Data set [2] relates to FITC-labeled human IgG. The data set can be described thus: IgG capture test on peptide-functionalized glass slides, fluorescence imaging. Type of data set: binding. The conditions noted are these: peptide immobilized via thiol-maleimide on PEG-modified epoxy glass slide; antibody 5 µg/mL in PBS, 25 °C, 3 h; ImageJ; n = 1. The procedure:
Epoxy-functionalized microscope glass slides (Tekdon Incorporated, Myakka City, FL, USA) were mounted in eight-well chambers. For peptide immobilization, NH2-PEG5000-COOH linkers (Biopharma PEG, Watertown, MA, USA) were applied to each well at a concentration of 1 mg/mL in ddH2O and incubated for ~5 h. The slides were then rinsed three times with ddH2O. Carboxyl groups of NH2-PEG5000-COOH linkers were activated for 30 min using 4 µg/mL 1-ethyl-3-(3-dimethylaminopropyl) carbodiimide hydrochloride (EDC; Thermo Fisher Scientific, Waltham, MA, USA) and 6 µg/mL N-hydroxy succinimide (NHS; Thermo Fisher Scientific) in ddH2O. Upon activation, the surfaces were washed three times with 1× PBS (Gibco, Grand Island, NY, USA) and incubated for over 5 h with an excess of NH2-PEG1000-MAL linkers (1 mg/mL in 1× PBS; Biopharma PEG). […]
[…] (Abcam, Cambridge, UK) were used to evaluate the antibody-binding capacity of each functionalized surface. […] The amount of surface-captured antibody was quantified via fluorescence imaging. […] Fluorescence intensity was analyzed using Image J software (64-bit Java 8). […]
Figure 3 IgG capture assay using FITC-labeled human IgG to evaluate the Fc-binding capability of peptides. […] (C) Quantitative fluorescence intensity analysis performed using ImageJ software (64-bit Java 8). […]

Where a SMILES comes first, the peptide text is derived from it.

For `CSCC[C@H](NC(=O)[C@H](CC(N)=O)NC(=O)[C@@H](N)Cc1ccccc1)C(=O)N[C@@H](CCC(N)=O)C(=O)N[C@@H](C)C(=O)N[C@@H](CCC(N)=O)C(=O)N[C@@H](CCCNC(=N)N)C(=O)N[C@@H](CCCNC(=N)N)C(=O)N[C@@H](Cc1ccccc1)C(=O)N[C@@H](Cc1ccc(O)cc1)C(=O)N[C@@H](CCC(=O)O)C(=O)N[C@@H](C)C(=O)N[C@@H](CC(C)C)C(=O)N[C@@H](Cc1c[nH]cn1)C(=O)N[C@@H](CS)C(N)=O` [SpA h1] (H-FNMQAQRRFYEALHC-NH2), in data set [1], the “time within which most of the peptide signal disappeared on α-chymotrypsin treatment” value is recorded as not above 1 min. Regarding “Protein A: Fc-binding protein of Staphylococcus aureus, positive control of the IgG capture test”, the “IgG-binding capacity (fluorescence intensity of captured IgG), in words” value in data set [2] is listed as “strong signal intensity”.
